Data as given in ChEMBL document CHEMBL3045426, “Synthesis, Antiviral and Antibacterial Activities of Isatin Mannich Bases” (Med Chem Res, 2005).
Converted amounts (≈) assume the structure as drawn.

Experiments:
Vibrio cholerae [1] = assay: Antimicrobial activity against Vibrio cholerae 01 after 18 to 20 hr by agar dilution method; type: functional; conditions: 1
Priestia megaterium = assay: Antimicrobial activity against Bacillus megaterium after 18 to 20 hr by agar dilution method; type: functional
Enterobacter = assay: Antimicrobial activity against Enterobacter after 18 to 20 hr by agar dilution method; type: functional
Citrobacter freundii = assay: Antimicrobial activity against Citrobacter freundii after 18 to 20 hr by agar dilution method; type: functional
Salmonella enteritidis = assay: Antimicrobial activity against Salmonella enterica subsp. enterica serovar Enteritidis after 18 to 20 hr by agar dilution method; type: functional
Salmonella typhimurium = assay: Antimicrobial activity against Salmonella enterica subsp. enterica serovar Typhimurium after 18 to 20 hr by agar dilution method; type: functional
Proteus mirabilis = assay: Antimicrobial activity against Proteus mirabilis after 18 to 20 hr by agar dilution method; type: functional
Proteus vulgaris = assay: Antimicrobial activity against Proteus vulgaris after 18 to 20 hr by agar dilution method; type: functional
Edwardsiella tarda = assay: Antimicrobial activity against Edwardsiella tarda after 18 to 20 hr by agar dilution method; type: functional
Escherichia coli = assay: Antimicrobial activity against Escherichia coli NCTC 10418 after 18 to 20 hr by agar dilution method; type: functional
Salmonella typhi = assay: Antimicrobial activity against Salmonella enterica subsp. enterica serovar Typhi after 18 to 20 hr by agar dilution method; type: functional
Salmonella paratyphi = assay: Antimicrobial activity against Salmonella enterica subsp. enterica serovar Paratyphi A after 18 to 20 hr by agar dilution method; type: functional
Vibrio parahaemolyticus = assay: Antimicrobial activity against Vibrio parahaemolyticus after 18 to 20 hr by agar dilution method; type: functional
Vibrio cholerae [2] = assay: Antimicrobial activity against Vibrio cholerae 0139 after 18 to 20 hr by agar dilution method; type: functional; conditions: 139
Vibrio fluvialis = assay: Antimicrobial activity against Vibrio fluvialis after 18 to 20 hr by agar dilution method; type: functional
Vibrio mimicus = assay: Antimicrobial activity against Vibrio mimicus after 18 to 20 hr by agar dilution method; type: functional
Pseudomonas aeruginosa = assay: Antimicrobial activity against Pseudomonas aeruginosa after 18 to 20 hr by agar dilution method; type: functional
Staphylococcus aureus = assay: Antimicrobial activity against Staphylococcus aureus after 18 to 20 hr by agar dilution method; type: functional
Morganella morganii = assay: Antimicrobial activity against Morganella morganii after 18 to 20 hr by agar dilution method; type: functional
Shigella boydii = assay: Antimicrobial activity against Shigella boydii after 18 to 20 hr by agar dilution method; type: functional
Plesiomonas = assay: Antimicrobial activity against Plesiomonas after 18 to 20 hr by agar dilution method; type: functional
Shigella sonnei = assay: Antimicrobial activity against Shigella sonnei after 18 to 20 hr by agar dilution method; type: functional
Klebsiella pneumoniae [3] = assay: Antimicrobial activity against Klebsiella pneumoniae after 18 to 20 hr by agar dilution method; type: functional
Klebsiella pneumoniae [4] = assay: Antimicrobial activity against Klebsiella pneumoniae subsp. ozaenae after 18 to 20 hr by agar dilution method; type: functional
[5] = test system: Mycobacterium tuberculosis; assay: Antimycobacterial activity against Mycobacterium tuberculosis H37Rv ATCC 27294 at 6.25 ug/ml by MABA; type: functional
[6] = Cytotoxicity against Homo sapiens (human) HuH7 cells assessed as cell growth at 50 ug/ml after 3 days by Neutral red assay; type: cell-based, Huh-7; conditions: read-out: Activity
[7] = Cytotoxicity against Homo sapiens (human) CEM cells after 5 days by MTT assay; type: cell-based; conditions: CEM cells (CCRF-CEM)
[8] = test system: Human immunodeficiency virus 1; assay: Antiviral activity against Human immunodeficiency virus 1 IIIB infected CEM cells assessed as protection against viral infection after 6 days by XTT assay; type: functional, CCRF-CEM; parameters: concentration or dose not given beside the values
[9] = test system: Human immunodeficiency virus 1; assay: Antiviral activity against Human immunodeficiency virus 1 IIIB infected CEM cells assessed as inhibition of virus-induced cytopathicity after 6 days by XTT assay; type: functional, organism-based; conditions: CCRF-CEM, 144 h
[10] = Cytotoxicity against Homo sapiens (human) MT4 cells after 5 days by MTT assay; type: cell-based
[11] = test system: Human immunodeficiency virus 1; assay: Antiviral activity against Human immunodeficiency virus 1 IIIB infected MT4 cells assessed as inhibition of virus-induced cytopathicity after 5 days by MTT assay; type: functional, organism-based; conditions: MT4, 120 h
Hepatitis C virus = assay: Antiviral activity against Hepatitis C virus BM4-5 infected in Huh7 cells assessed as inhibition of viral RNA replication by phosphor screening method; type: functional, Hepacivirus hominis, Huh-7
[12] = test system: Human immunodeficiency virus 1; assay: Antiviral activity against Human immunodeficiency virus 1 IIIB infected MT4 cells assessed as protection against viral infection after 5 days by MTT assay; type: functional; parameters: concentration or dose not given beside the values

| SMILES | MIC (Vibrio cholerae [1]) [µg/mL] | MIC (Priestia megaterium) [µg/mL] | MIC (Enterobacter) [µg/mL] | MIC (Citrobacter freundii) [µg/mL] | MIC (Salmonella enteritidis) [µg/mL] | MIC (Salmonella typhimurium) [µg/mL] | MIC (Proteus mirabilis) [µg/mL] | MIC (Proteus vulgaris) [µg/mL] | MIC (Edwardsiella tarda) [µg/mL] | MIC (Escherichia coli) [µg/mL] | MIC (Salmonella typhi) [µg/mL] | MIC (Salmonella paratyphi) [µg/mL] | MIC (Vibrio parahaemolyticus) [µg/mL] | MIC (Vibrio cholerae [2]) [µg/mL] | MIC (Vibrio fluvialis) [µg/mL] | MIC (Vibrio mimicus) [µg/mL] | MIC (Pseudomonas aeruginosa) [µg/mL] | MIC (Staphylococcus aureus) [µg/mL] | MIC (Morganella morganii) [µg/mL] | MIC (Shigella boydii) [µg/mL] | other results |
| --- | --- | --- | --- | --- | --- | --- | --- | --- | --- | --- | --- | --- | --- | --- | --- | --- | --- | --- | --- | --- | --- |
| COc1cc(Cc2cnc(/N=C3\C(=O)N(CN4CCN(c5ccc(Cl)cc5)CC4)c4ccc(Cl)cc43)nc2N)cc(OC)c1OC | 4.88 (≈ 7.37 µM) | 1250 (≈ 1890 µM) | 1250 (≈ 1890 µM) | 1250 (≈ 1890 µM) | 1250 (≈ 1890 µM) | 1250 (≈ 1890 µM) | 1250 (≈ 1890 µM) | 1250 (≈ 1890 µM) | 625 (≈ 943 µM) | 1250 (≈ 1890 µM) | 1250 (≈ 1890 µM) | 625 (≈ 943 µM) | 2.44 (≈ 3.68 µM) | 1250 (≈ 1890 µM) | 1250 (≈ 1890 µM) | 9.76 (≈ 14.7 µM) | 2500 (≈ 3770 µM) | 1250 (≈ 1890 µM) | 1250 (≈ 1890 µM) | 39.1 (≈ 59 µM) | MIC (Plesiomonas): 19.5 µg/mL (≈ 29.5 µM); MIC (Shigella sonnei): 1250 µg/mL (≈ 1890 µM); MIC (Klebsiella pneumoniae [3]): 1250 µg/mL (≈ 1890 µM); MIC (Klebsiella pneumoniae [4]): 1250 µg/mL (≈ 1890 µM); inhibition at 6.25 µg/mL [5]: 40%; viability at 72 h, 50 ug/ml [6]: 56%; CC50 at 120 h [7]: 40.1 µg/mL (≈ 60.5 µM); Activity [8]: 22.64%; EC50 [9]: > 40.1 µg/mL; CC50 at 120 h [10]: 38.6 µg/mL (≈ 58.3 µM); EC50 [11]: > 38.6 µg/mL; inhibition (INH) (Hepatitis C virus): 99%; Activity [12]: 32.6% |
| COc1cc(Cc2cnc(/N=C3\C(=O)N(CN4CCN(C(=O)c5ccc(F)cc5)CC4)c4ccc(Cl)cc43)nc2N)cc(OC)c1OC | 39.1 (≈ 57.9 µM) | 2500 (≈ 3710 µM) | 625 (≈ 927 µM) | 2500 (≈ 3710 µM) | 2500 (≈ 3710 µM) | 2500 (≈ 3710 µM) | 2500 (≈ 3710 µM) | 2500 (≈ 3710 µM) | 2500 (≈ 3710 µM) | 2500 (≈ 3710 µM) | 2500 (≈ 3710 µM) | 625 (≈ 927 µM) | 4.88 (≈ 7.24 µM) | 1250 (≈ 1850 µM) | 2500 (≈ 3710 µM) | 2.44 (≈ 3.62 µM) | 2500 (≈ 3710 µM) | 2500 (≈ 3710 µM) | 2500 (≈ 3710 µM) | 39.1 (≈ 57.9 µM) | MIC (Plesiomonas): 9.76 µg/mL (≈ 14.5 µM); MIC (Shigella sonnei): 2500 µg/mL (≈ 3710 µM); MIC (Klebsiella pneumoniae [3]): 2500 µg/mL (≈ 3710 µM); MIC (Klebsiella pneumoniae [4]): 2500 µg/mL (≈ 3710 µM); inhibition at 6.25 µg/mL [5]: 38%; viability at 72 h, 50 ug/ml [6]: 71%; CC50 at 120 h [7]: 51 µg/mL (≈ 75.7 µM); Activity [8]: 23.38%; EC50 [9]: > 51 µg/mL; CC50 at 120 h [10]: 60.6 µg/mL (≈ 89.9 µM); EC50 [11]: > 60.6 µg/mL; inhibition (INH) (Hepatitis C virus): 91%; Activity [12]: 30.2% |
| COc1cc(Cc2cnc(/N=C3\C(=O)N(CN4CCN(c5ccccn5)CC4)c4ccc(Cl)cc43)nc2N)cc(OC)c1OC | 9.76 (≈ 15.5 µM) | 1250 (≈ 1990 µM) | 1250 (≈ 1990 µM) | 625 (≈ 993 µM) | 1250 (≈ 1990 µM) | 1250 (≈ 1990 µM) | 1250 (≈ 1990 µM) | 625 (≈ 993 µM) | 1250 (≈ 1990 µM) | 1250 (≈ 1990 µM) | 1250 (≈ 1990 µM) | 312 (≈ 497 µM) | 1.22 (≈ 1.94 µM) | 312 (≈ 497 µM) | 1250 (≈ 1990 µM) | 1.22 (≈ 1.94 µM) | 1250 (≈ 1990 µM) | 1250 (≈ 1990 µM) | 312 (≈ 497 µM) | 2.44 (≈ 3.88 µM) | MIC (Plesiomonas): 9.76 µg/mL (≈ 15.5 µM); MIC (Shigella sonnei): 1250 µg/mL (≈ 1990 µM); MIC (Klebsiella pneumoniae [3]): 1250 µg/mL (≈ 1990 µM); MIC (Klebsiella pneumoniae [4]): 625 µg/mL (≈ 993 µM); inhibition at 6.25 µg/mL [5]: 23%; viability at 72 h, 50 ug/ml [6]: 101%; CC50 at 120 h [7]: 29.4 µg/mL (≈ 46.7 µM); Activity [8]: 23.55%; EC50 [9]: > 29.4 µg/mL; CC50 at 120 h [10]: 39.2 µg/mL (≈ 62.3 µM); EC50 [11]: > 39.2 µg/mL; inhibition (INH) (Hepatitis C virus): 89%; Activity [12]: 16.6% |
